In ChEMBL document CHEMBL1142166, “Inhibition of antiassociation activity of translation initiation factor 3 by paromomycin” (2007) one finds Activity data, which are given here for 1 compound.

Assay [1] has as its system Escherichia coli. The experiment in a line: Association of ribosome subunits into 70S ribosome of Escherichia coli MRE600 at 0.1 mM in presence of 4 mM Mg2+. The format is functional.
Assay [2] relates to Escherichia coli. Kind of assay: Association of ribosome subunits into 70S ribosome of Escherichia coli MRE600 in presence of 4 mM Mg2+. It is filed as functional.
The subject of assay [3] is Escherichia coli. Kind of assay: Association of ribosome subunits into 70S ribosome of Escherichia coli MRE600 assessed above 20 uM in the presence of 1 mM Mg2+. The format is functional, organism-based.
Assay [4] has as its system Escherichia coli. The experiment in a line: Association of ribosome subunits into 70S ribosome of Escherichia coli MRE600 in presence of 6 mM Mg2+. The format is functional.
Assay [5] deals with T1, Translation initiation factor IF-3 (Escherichia coli K-12) (UniProt P0A707).
T1 sequence (whole entry): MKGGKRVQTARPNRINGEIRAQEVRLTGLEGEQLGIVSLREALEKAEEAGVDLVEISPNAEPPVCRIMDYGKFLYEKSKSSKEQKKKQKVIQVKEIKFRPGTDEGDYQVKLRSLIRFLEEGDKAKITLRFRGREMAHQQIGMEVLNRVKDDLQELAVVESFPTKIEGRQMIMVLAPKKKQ
The experiment in a line: Inhibition of Escherichia coli XL1-Blue IF3 antiassociation activity at 0.1 uM in the presence of 8.2 mM Mg2+.

Assay [6] has as its target T1, Translation initiation factor IF-3 (Escherichia coli K-12). Kind of assay: Inhibition of Escherichia coli XL1-Blue IF3 binding to 30S subunit at 100 uM in presence of 8.2 mm Mg2+.
The subject of assay [7] is Escherichia coli. Kind of assay: Association of ribosome subunits into 70S ribosome of Escherichia coli MRE600 assessed upto 20 uM in the presence of 1 mM Mg2+. It is filed as functional.

The source made the active and inactive calls. The calls are words filed in the database; no cut-off is given here.

In the case of `NC[C@@H]1O[C@H](O[C@H]2[C@@H](O)[C@H](O[C@@H]3[C@@H](O)[C@H](N)C[C@H](N)[C@H]3O[C@H]3O[C@H](CO)[C@@H](O)[C@H](O)[C@H]3N)O[C@@H]2CO)[C@H](N)[C@@H](O)[C@@H]1O` [PAROMOMYCIN], the Activity worked out at 70% in the assay with Escherichia coli [1], 40% in the assay on Escherichia coli [2], 55% in the assay on Escherichia coli [4] and 50% in the assay on Escherichia coli [7]. In addition, the outcome (in the assay with Escherichia coli [3]; in assay [6]) was inactive. Moreover, in assay [5], the outcome was Active.
